The values below come from patent publication US11780845B2 (Relay Therapeutics, Inc., priority 2019, dated 2023).

The structures appear in SMILES notation.

Sequence of FGFR2 (P21802 22-821): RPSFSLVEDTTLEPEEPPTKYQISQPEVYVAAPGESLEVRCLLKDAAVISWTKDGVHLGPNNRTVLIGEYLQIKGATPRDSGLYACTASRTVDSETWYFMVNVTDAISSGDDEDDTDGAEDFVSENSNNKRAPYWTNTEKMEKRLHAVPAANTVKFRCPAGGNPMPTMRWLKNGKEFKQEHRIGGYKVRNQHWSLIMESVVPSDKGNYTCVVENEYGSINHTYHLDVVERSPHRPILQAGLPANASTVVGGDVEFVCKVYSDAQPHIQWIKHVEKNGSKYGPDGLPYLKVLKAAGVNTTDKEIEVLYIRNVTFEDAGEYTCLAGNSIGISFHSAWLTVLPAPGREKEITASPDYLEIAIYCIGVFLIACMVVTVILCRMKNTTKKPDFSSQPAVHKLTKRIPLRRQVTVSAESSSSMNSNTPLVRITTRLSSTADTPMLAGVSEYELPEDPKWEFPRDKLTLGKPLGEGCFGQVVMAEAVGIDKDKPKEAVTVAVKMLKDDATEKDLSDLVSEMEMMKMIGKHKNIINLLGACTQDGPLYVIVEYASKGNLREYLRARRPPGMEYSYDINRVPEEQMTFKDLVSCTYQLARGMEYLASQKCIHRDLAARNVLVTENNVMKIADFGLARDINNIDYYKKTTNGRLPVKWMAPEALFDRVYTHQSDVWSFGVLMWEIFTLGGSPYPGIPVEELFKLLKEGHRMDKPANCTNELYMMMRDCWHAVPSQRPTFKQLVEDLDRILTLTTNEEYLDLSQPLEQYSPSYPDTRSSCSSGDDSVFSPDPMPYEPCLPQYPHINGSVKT

The target in the test is FGFR2 (Homo sapiens (Human), UniProt P21802). The experiment in a line: FGFR2 Biochemical Caliper Assay. As for the experimental part:
Compounds of the present invention were also tested in a FGFR2 Biochemical Caliper Assay. Compounds were prepared in 10 mM DMSO solution and serially diluted into 11 concentrations by 3-fold dilution. […] 5 uL of ATP solution (100 uM) was added to start the reaction and the plate was incubated for 90 minutes, then 70 uL of stopping buffer (0.5M EDTA) was added to terminate the reaction. Each well was analyzed using EZ reader.
With `C=CC(=O)Nc1ccc(-c2c(C3=CCN(C(=O)C(F)(F)F)CC3)c3c(N)ncnc3n2C)cc1` [Example 74], the IC50 (commonly the point on the concentration scale where inhibition reaches its midpoint) was 250 to 1000 nM.

`C=CC(=O)Nc1ccc(-c2c(C3=CCNCC3)c3c(N)ncnc3n2C)cc1` [Example 75] returned an IC50 of 250 to 1000 nM.

With `C=CC(=O)Nc1ccc(-c2c(-c3ccccc3)c3c(N)ncnc3n2C)cc1` [Example 76], the IC50 was 100 to 250 nM.

With `C=C(C)C(=O)Nc1ccc(-c2c(-c3ccc(Oc4cccc(C)n4)cc3)c3c(N)ncnc3n2CCN2CCOCC2)cc1` [Example 79], the IC50 is 100 to 250 nM.

The compound `C=C(C)C(=O)Nc1ccc(-c2c(-c3ccc(Oc4cccc(C)n4)cc3)c3c(N)ncnc3n2CCN(C)C)cc1` [Example 80] yielded an IC50 of 100 to 250 nM.

Turning to `C=CC(=O)Nc1ccc(-c2c(-c3ccc(C(=O)c4ccccc4C)c(OC)c3)c3c(N)ncnc3n2C)cc1` [Example 81], the IC50 was below 100 nM.

`C=CC(=O)Nc1ccc(-c2c(-c3ccc(Sc4ncccn4)c(OC)c3)c3c(N)ncnc3n2C)cc1` [Example 82] had an IC50 below 100 nM.

Regarding `CC#CC(=O)Nc1ccc(-c2c(-c3ccc(Oc4ncccn4)cc3)c3c(N)ncnc3n2C)cc1` [Example 84], the IC50 was below 100 nM.

As for `C=C(C)C(=O)Nc1ccc(-c2c(-c3ccc(S(=O)(=O)N4CCCC4)cc3)c3c(N)ncnc3n2C)cc1` [Example 85], the IC50 lay within 100 to 250 nM.

As for `C=CC(=O)Nc1ccc(-c2c(-c3ccc(Oc4ncc(N)cn4)c(OC)c3)c3c(N)ncnc3n2C)cc1` [Example 87], the IC50 is below 100 nM.

For `C=C(C)C(=O)Nc1ccc(-c2c(-c3ccc(Oc4cccc(C)n4)cc3)c3c(N)ncnc3n2C2CCOCC2)cc1` [Example 88], the IC50 was 100 to 250 nM.

Regarding `C=C(C)C(=O)Nc1ccc(-c2c(-c3ccc(Oc4cccc(C)n4)cc3)c3c(N)ncnc3n2CCN2CCN(C)CC2)cc1` [Example 89], the IC50 was below 100 nM.

In the case of `C=C(C)C(=O)Nc1ccc(-c2c(-c3ccc(Oc4cnc(C)cn4)c(F)c3)c3c(N)ncnc3n2C)cc1` [Example 92], the IC50 is 1000 to 100000 nM.

As to `C=C(C)C(=O)Nc1ccc(-c2c(-c3ccc(C(O)c4ncccn4)c(OC)c3)c3c(N)ncnc3n2C)cc1` (stereo not shown) [Example 93], the IC50 lay within 250 to 1000 nM.

Regarding `C=C(C)C(=O)Nc1ccc(-c2c(-c3ccc(Oc4ccc(Cl)cn4)cc3)c3c(N)ncnc3n2C)cc1` [Example 97], the IC50 was 250 to 1000 nM.

As for `C=CC(=O)Nc1ccc(-c2c(C3CCN(C)CC3)c3c(N)ncnc3n2C)cc1` [Example 99], the IC50 is 1000 to 100000 nM.

The compound `C=C(C)C(=O)Nc1ccc(-c2c(-c3ccc(Oc4ncc(Cl)cn4)c(OC)c3)c3c(N)ncnc3n2C)cc1` [Example 102] displayed an IC50 of 100 to 250 nM.

As to `C=CC(=O)Nc1ccc(-c2c(C3CCN(C(=O)CNC(=O)NC)CC3)c3c(N)ncnc3n2C)cc1` [Example 104], the IC50 lay in the range of 1000 to 100000 nM.

In the case of `C=CC(=O)Nc1ccc(-c2c(C3CCN(C(=O)C(C)CCNC)CC3)c3c(N)ncnc3n2C)cc1` (stereo not shown) [Example 105], the IC50 was in the range of 250 to 1000 nM.

Take `C=C(C)C(=O)Nc1ccc(-c2c(-c3ccc(Cc4ncccn4)c(OC)c3)c3c(N)ncnc3n2C)cc1` [Example 106]: the IC50 lay in the range of 1000 to 100000 nM.

Turning to `C=C(C)C(=O)Nc1ccc(-c2c(-c3cc(F)c(Oc4ccccn4)c(F)c3)c3c(N)ncnc3n2C)cc1` [Example 107], the IC50 lay in the range of 250 to 1000 nM.

In turn, `C=C(C)C(=O)Nc1ccc(-c2c(-c3ccc(Oc4ccc(C)cn4)c(O)c3)c3c(N)ncnc3n2C)cc1` [Example 108] had an IC50 of 1000 to 100000 nM.

`C=C(C)C(=O)Nc1ccc(-c2c(-c3ccc(Oc4ncc(F)cn4)c(C)c3)c3c(N)ncnc3n2C)cc1` [Example 109] returned an IC50 of 100 to 250 nM.

Consider `C=C(C)C(=O)Nc1ccc(-c2c(-c3ccc(Oc4ccc(F)cn4)c(O)c3)c3c(N)ncnc3n2C)cc1` [Example 111], for which the IC50 was 1000 to 100000 nM.

`C=C(C)C(=O)Nc1ccc(-c2c(-c3ccc(Oc4ccc(F)nc4)c(O)c3)c3c(N)ncnc3n2C)cc1` [Example 112] returned an IC50 of 1000 to 100000 nM.

Compound `C=C(C)C(=O)Nc1ccc(-c2c(-c3ccc(Oc4ncc(Cl)cn4)c(F)c3)c3c(N)ncnc3n2C)cc1` [Example 115] had an IC50 of 250 to 1000 nM.

On to `C=C(C)C(=O)Nc1ccc(-c2c(-c3cc(F)c(Oc4cnccn4)c(F)c3)c3c(N)ncnc3n2C)cc1` [Example 118], for which the IC50 fell in the range of 1000 to 100000 nM.

The compound `C=C(C)C(=O)Nc1ccc(-c2c(-c3ccc(Oc4ccc(Cl)cn4)c(O)c3)c3c(N)ncnc3n2C)cc1` [Example 119] had a half-inhibitory concentration (IC50) of 1000 to 100000 nM.

As for `C=C(C)C(=O)Nc1ccc(-c2c(-c3ccc(Oc4ccc(Cl)c(C)n4)cc3)c3c(N)ncnc3n2C)cc1` [Example 122], the IC50 lay in the range of 250 to 1000 nM.

`C=C(C)C(=O)Nc1ccc(-c2c(-c3ccc(OCC(=O)O)cc3)c3c(N)ncnc3n2C)cc1` [Example 124] returned an IC50 of 1000 to 100000 nM.

In the case of `C=C(C)C(=O)Nc1ccc(-c2c(-c3ccc4c(c3)CC(=O)N4)c3c(N)ncnc3n2C)cc1` [Example 125], the IC50 was 1000 to 100000 nM.

For the compound `C=C(C)C(=O)Nc1ccc(-c2c(-c3cnn(Cc4cccnc4)c3)c3c(N)ncnc3n2C)cc1` [Example 126], the IC50 was in the range of 1000 to 100000 nM.

In turn, `C=C(C)C(=O)Nc1ccc(-c2c(-c3cc(N)c(Oc4ccccn4)c(F)c3)c3c(N)ncnc3n2C)cc1` [Example 127] had an IC50 of 100 to 250 nM.

Regarding `C=C(C)C(=O)Nc1ccc(-c2c(-c3cc(C)c(Oc4ccccn4)c(O)c3)c3c(N)ncnc3n2C)cc1` [Example 129], the IC50 is 250 to 1000 nM.

Compound `C=C(C)C(=O)Nc1ccc(-c2c(-c3ccc(CC(=O)N(C)C)cc3)c3c(N)ncnc3n2C)cc1` [Example 130] showed an IC50 of 1000 to 100000 nM.

In turn, `C=C(C)C(=O)Nc1ccc(-c2c(-c3ccc(N(C)C)nc3)c3c(N)ncnc3n2C)cc1` [Example 131] gave an IC50 of 1000 to 100000 nM.

Turning to `C=C(C)C(=O)Nc1ccc(-c2c(-c3ccc(-c4nnn(C)n4)nc3)c3c(N)ncnc3n2C)cc1` [Example 132], the IC50 lay in the range of 1000 to 100000 nM.

`C=C(C)C(=O)Nc1ccc(-c2c(-c3ccc(OCC4CC4)cc3)c3c(N)ncnc3n2C)cc1` [Example 133] had an IC50 of 100 to 250 nM.

In turn, `C=C(C)C(=O)Nc1ccc(-c2c(-c3cncc(CO)c3)c3c(N)ncnc3n2C)cc1` [Example 134] returned an IC50 of 1000 to 100000 nM.

Compound `C=C(C)C(=O)Nc1ccc(-c2c(C3=CCCN(C(C)=O)C3)c3c(N)ncnc3n2C)cc1` [Example 136] returned an IC50 of 1000 to 100000 nM.

In the case of `C=C(C)C(=O)Nc1ccc(-c2c(-c3ccc(OCc4ccccc4)nc3)c3c(N)ncnc3n2C)cc1` [Example 138], the IC50 was in the range of 1000 to 100000 nM.

As to `C=C(C)C(=O)Nc1ccc(-c2c(-c3cc(OC)ncc3F)c3c(N)ncnc3n2C)cc1` [Example 139], the IC50 fell in the range of 1000 to 100000 nM.

`C=C(C)C(=O)Nc1ccc(-c2c(-c3ccc(C(=O)N4CCC(F)(F)CC4)cc3)c3c(N)ncnc3n2C)cc1` [Example 142]: the IC50 lay within 1000 to 100000 nM.

The compound `C=C(C)C(=O)Nc1ccc(-c2c(-c3cc(OC)ncc3OC)c3c(N)ncnc3n2C)cc1` [Example 144] returned an IC50 of 1000 to 100000 nM.

Regarding `C=C(C)C(=O)Nc1ccc(-c2c(-c3ccc(CN4CC[C@@H](O)C4)cc3)c3c(N)ncnc3n2C)cc1` [Example 146], the IC50 is 1000 to 100000 nM.

As for `C=C(C)C(=O)Nc1ccc(-c2c(-c3ccc4c(c3)CCC(=O)N4)c3c(N)ncnc3n2C)cc1` [Example 147], the IC50 is 1000 to 100000 nM.

Consider `C=C(C)C(=O)Nc1ccc(-c2c(-c3ccc(-c4ncc[nH]4)cc3)c3c(N)ncnc3n2C)cc1` [Example 149], for which the IC50 was in the range of 250 to 1000 nM.

As for `C=CC(=O)Nc1ccc(-c2c(-c3cnn(CC4CCNCC4)c3)c3c(N)ncnc3n2C)cc1` [Example 151], the IC50 lay within 250 to 1000 nM.

`C=C(C)C(=O)Nc1ccc(-c2c(-c3ccn4ccnc4c3)c3c(N)ncnc3n2C)cc1` [Example 153] yielded an IC50 of 1000 to 100000 nM.

For `C=C(C)C(=O)Nc1ccc(-c2c(-c3ccc(Cn4cc(C)cn4)c(F)c3)c3c(N)ncnc3n2C)cc1` [Example 158], the IC50 was 1000 to 100000 nM.

`C=C(C)C(=O)Nc1ccc(-c2c(-c3ccc(CN4CCC(F)(F)CC4)c(F)c3)c3c(N)ncnc3n2C)cc1` [Example 159]: the IC50 fell in the range of 1000 to 100000 nM.

For the compound `C=C(C)C(=O)Nc1ccc(-c2c(-c3cc(O)c(Oc4ccccn4)c(Cl)c3)c3c(N)ncnc3n2C)cc1` [Example 162], the IC50 lay in the range of 250 to 1000 nM.

`C=C(C)C(=O)Nc1ccc(-c2c(-c3cnn(C4CN(C)C4)c3)c3c(N)ncnc3n2C)cc1` [Example 163]: the IC50 is 1000 to 100000 nM.

`C=C(C)C(=O)Nc1ccc(-c2c(-c3ccc4cn(C)nc4c3)c3c(N)ncnc3n2C)cc1` [Example 164] displayed an IC50 of 100 to 250 nM.

With `C=C(C)C(=O)Nc1ccc(-c2c(-c3ccc(-n4cc(C)cn4)nc3)c3c(N)ncnc3n2C)cc1` [Example 165], the IC50 was 250 to 1000 nM.

Compound `C=C(C)C(=O)Nc1ccc(-c2c(C3=CC4CCC(C3)N4)c3c(N)ncnc3n2C)cc1` (stereo not shown) [Example 168] had an IC50 of 100 to 250 nM.

Turning to `C=C(C)C(=O)Nc1ccc(-c2c(-c3ccc4c(cnn4C(C)C)c3)c3c(N)ncnc3n2C)cc1` [Example 170], the IC50 was 250 to 1000 nM.

Take `C=C(C)C(=O)Nc1ccc(-c2c(-c3ccc(CN4CCN(C)CC4)cc3)c3c(N)ncnc3n2C)cc1` [Example 172]: the IC50 is 1000 to 100000 nM.

Consider `C=C(C)C(=O)Nc1ccc(-c2c(-c3ccc(CC(=O)N(C)C)c(F)c3)c3c(N)ncnc3n2C)cc1` [Example 173], for which the IC50 was 1000 to 100000 nM.

Regarding `C=C(C)C(=O)Nc1ccc(-c2c(-c3ccc4c(c3)OCCN4C)c3c(N)ncnc3n2C)cc1` [Example 175], the IC50 is below 100 nM.

`C=C(C)C(=O)Nc1ccc(-c2c(-c3ccc(N)c(OC(F)(F)F)c3)c3c(N)ncnc3n2C)cc1` [Example 177] showed an IC50 of 1000 to 100000 nM.

`C=C(C)C(=O)Nc1ccc(-c2c(-c3ccc(-c4nccs4)cc3)c3c(N)ncnc3n2C)cc1` [Example 178] came in with an IC50 of 250 to 1000 nM.

`C=C(C)C(=O)Nc1ccc(-c2c(-c3cnn(Cc4ccncc4)c3)c3c(N)ncnc3n2C)cc1` [Example 179] registered an IC50 of 1000 to 100000 nM.

The compound `C=C(C)C(=O)Nc1ccc(-c2c(-c3ccc(S(C)(=O)=O)cc3C)c3c(N)ncnc3n2C)cc1` [Example 181] came in with an IC50 of 1000 to 100000 nM.
